From paper PMC3713009 (PLoS ONE, 2013)
Where two headings read alike, the source gives them in different places. Values belong to the compound of their own block, whether it stands above or below them.

Experiments:
[1] = target: HDAC3/NCOR1 complex (Homo sapiens, UniProt O15379); experiment: HDAC3 enzyme assay (fluorescent activity kit, HDAC3/NCOR1 complex); type: biochemical; conditions: for inhibition at 10 µM: library screen, o-aminoanilides T1–T336 without purification, values read from Figure 7; for IC50 HDAC3 / IC50: class I, means of at least three experiments;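 as to all read-outs here: in vitro enzyme activity of HDAC3 complexed with NCOR1, fluorescence read at 360 nm excitation and 460 nm emission, inhibition relative to uninhibited control wells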
[2] = system: colon cancer HCT116 cells; experiment: Cell growth inhibition assay (MTT), HCT116; type: cell-based; conditions: Homo sapiens, read-out: GI50 HCT116 (colon cancer)
[3] = system: acetylated NF-κB in HCT116 cells; experiment: Western blot of acetylated NF-κB in HCT116 cells; type: cell-based, human; conditions: 8 h treatment
[4] = target: T1, HDAC1 (Homo sapiens, UniProt Q13547); experiment: HDAC1 enzyme assay; type: biochemical; conditions: class I; means of at least three experiments
T1 construct: purchased SignalChem Pharmaceuticals Inc. H83-30G
Protocol: (§1) The fluorescence of the wells was measured on a fluorometric reader with excitation set at 360 nm and emission detection set at 460 nm, and the values of % inhibition were calculated from the fluorescence readings of inhibited wells relative to those of control wells. […] IC50 values were determined by regression analysis of the concentration/inhibition data.

[5] = system: acetylated α-tubulin in HCT116 cells; experiment: Western blot of acetylated α-tubulin in HCT116 cells; type: cell-based, human; conditions: 8 h treatment
[6] = system: acetylated p53 in HCT116 cells; experiment: Western blot of acetylated p53 in HCT116 cells; type: cell-based, human; conditions: 8 h treatment
[7] = system: prostate cancer PC3 cells; experiment: Cell growth inhibition assay (MTT), PC3; type: cell-based; conditions: Homo sapiens, read-out: GI50 PC3 (prostate cancer)
[8] = target: total HDACs from HeLa nuclear extracts; experiment: Total HDACs enzyme assay (HeLa nuclear extracts); type: biochemical; conditions: pure resynthesized compounds, means of at least three experiments
[9] = system: OM10.1 cells latently infected with HIV-1; experiment: Viral p24 antigen assay in latently HIV-1-infected OM10.1 cells; type: cell-based
Protocol: Figure 13 Induction of viral replication from OM10.1 cells latently infected with HIV-1. […] HIV-1 p24 antigen in the cell culture supernatant was measured using ELISA. Experiments were performed in triplicate, and the means ±S.D. are indicated. **P<0.01, *P<0.05; Student’s t test results indicated differences between DMSO and inhibitors.
The p24 antigen level in the cell culture supernatant was measured by p24 antigen capture ELISA assay using a commercial kit (RETRO-TEK HIV-1 p24 Antigen ELISA kit; Zepto Metrix, Buffalo, NY, USA) according to the method reported in ref [54].

[10] = target: T2, HDAC6 (Homo sapiens, UniProt Q9UBN7); experiment: HDAC6 enzyme assay; type: biochemical; conditions: class IIb; means of at least three experiments
T2 construct: purchased BIOMOL Research Laboratories SE-508
T2 sequence (Q9UBN7 1-1215): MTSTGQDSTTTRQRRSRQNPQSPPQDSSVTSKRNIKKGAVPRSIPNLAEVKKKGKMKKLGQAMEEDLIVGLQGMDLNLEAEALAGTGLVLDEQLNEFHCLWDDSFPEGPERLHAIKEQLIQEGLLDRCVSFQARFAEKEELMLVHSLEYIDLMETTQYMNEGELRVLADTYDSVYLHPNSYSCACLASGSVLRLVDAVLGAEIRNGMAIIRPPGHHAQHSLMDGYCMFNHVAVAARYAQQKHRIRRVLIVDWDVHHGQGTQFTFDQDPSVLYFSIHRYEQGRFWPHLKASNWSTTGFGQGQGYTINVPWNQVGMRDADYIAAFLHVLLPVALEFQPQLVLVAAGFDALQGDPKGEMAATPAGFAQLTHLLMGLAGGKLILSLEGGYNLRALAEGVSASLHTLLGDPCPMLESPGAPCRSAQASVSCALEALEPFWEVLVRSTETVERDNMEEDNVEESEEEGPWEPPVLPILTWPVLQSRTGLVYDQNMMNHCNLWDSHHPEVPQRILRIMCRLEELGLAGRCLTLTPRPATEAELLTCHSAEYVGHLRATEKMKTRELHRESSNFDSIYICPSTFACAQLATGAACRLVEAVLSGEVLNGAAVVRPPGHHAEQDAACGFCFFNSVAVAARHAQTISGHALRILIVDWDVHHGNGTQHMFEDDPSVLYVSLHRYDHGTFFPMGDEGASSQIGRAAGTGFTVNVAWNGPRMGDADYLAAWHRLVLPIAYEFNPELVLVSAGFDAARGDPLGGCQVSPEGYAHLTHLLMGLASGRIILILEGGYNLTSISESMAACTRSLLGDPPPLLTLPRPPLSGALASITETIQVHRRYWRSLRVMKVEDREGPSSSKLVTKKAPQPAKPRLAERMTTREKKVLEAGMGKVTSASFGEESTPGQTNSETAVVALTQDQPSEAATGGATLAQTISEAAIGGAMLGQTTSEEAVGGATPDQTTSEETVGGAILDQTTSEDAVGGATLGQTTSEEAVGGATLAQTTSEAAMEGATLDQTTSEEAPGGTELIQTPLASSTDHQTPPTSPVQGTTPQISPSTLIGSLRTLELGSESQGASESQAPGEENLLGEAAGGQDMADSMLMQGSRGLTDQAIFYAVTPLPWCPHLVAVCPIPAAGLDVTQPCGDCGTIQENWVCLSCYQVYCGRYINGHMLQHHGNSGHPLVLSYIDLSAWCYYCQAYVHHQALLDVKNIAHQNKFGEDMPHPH

[11] = target: T3, HDAC8 (Homo sapiens, UniProt Q9BY41); experiment: HDAC8 enzyme assay; type: biochemical; conditions: class I; means of at least three experiments
T3 construct: purchased Cyclex Company Limited CY-1158
T3 sequence (Q9BY41 1-377): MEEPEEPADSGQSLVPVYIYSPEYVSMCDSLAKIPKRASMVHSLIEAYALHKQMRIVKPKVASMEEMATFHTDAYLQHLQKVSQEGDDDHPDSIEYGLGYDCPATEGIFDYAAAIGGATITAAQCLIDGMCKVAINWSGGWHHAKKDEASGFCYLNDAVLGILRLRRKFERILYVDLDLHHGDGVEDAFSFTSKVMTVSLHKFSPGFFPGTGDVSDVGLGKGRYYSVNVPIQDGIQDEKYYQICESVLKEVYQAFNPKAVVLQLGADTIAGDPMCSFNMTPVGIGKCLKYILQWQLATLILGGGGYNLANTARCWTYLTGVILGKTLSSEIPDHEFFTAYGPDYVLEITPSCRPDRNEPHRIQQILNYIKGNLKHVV
Protocol: as §1

[12] = target: T4, HDAC4 (Homo sapiens, UniProt P56524); experiment: HDAC4 enzyme assay; type: biochemical; conditions: class IIa; means of at least three experiments
T4 construct: purchased BPS Bioscience Incorporated

[13] = HCT-116, 48 h exposure, MTT, means of at least three experiments
[14] = 1 µM, means of two experiments, read-out: HDAC3 inhibition (%)
[15] = 3 µM, means of two experiments, read-out: HDAC3 inhibition (%)
[16] = PC-3, 48 h exposure, MTT, means of at least three experiments
[17] = 48 h, 0.1, 1 and 10 µM, effect at 1 µM and/or 10 µM

Sequence of HDAC3/NCOR1 complex (O15379 whole entry): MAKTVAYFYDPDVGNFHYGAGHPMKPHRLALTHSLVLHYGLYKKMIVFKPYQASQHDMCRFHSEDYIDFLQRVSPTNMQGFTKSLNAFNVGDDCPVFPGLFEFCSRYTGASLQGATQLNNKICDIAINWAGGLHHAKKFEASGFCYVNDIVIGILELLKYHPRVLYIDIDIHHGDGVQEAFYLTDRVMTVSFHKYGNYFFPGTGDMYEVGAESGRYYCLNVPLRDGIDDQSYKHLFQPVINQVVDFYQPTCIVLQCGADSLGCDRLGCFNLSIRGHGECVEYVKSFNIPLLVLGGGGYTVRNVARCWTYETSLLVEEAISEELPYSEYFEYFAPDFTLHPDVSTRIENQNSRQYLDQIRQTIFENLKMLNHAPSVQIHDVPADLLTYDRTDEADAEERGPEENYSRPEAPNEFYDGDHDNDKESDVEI
Sequence of HDAC3/NCOR1 complex (O75376 395-489 partner limits assumed): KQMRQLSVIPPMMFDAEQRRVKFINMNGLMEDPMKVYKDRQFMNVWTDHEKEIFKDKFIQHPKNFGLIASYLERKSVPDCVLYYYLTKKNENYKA
T1 sequence (Q13547 whole entry): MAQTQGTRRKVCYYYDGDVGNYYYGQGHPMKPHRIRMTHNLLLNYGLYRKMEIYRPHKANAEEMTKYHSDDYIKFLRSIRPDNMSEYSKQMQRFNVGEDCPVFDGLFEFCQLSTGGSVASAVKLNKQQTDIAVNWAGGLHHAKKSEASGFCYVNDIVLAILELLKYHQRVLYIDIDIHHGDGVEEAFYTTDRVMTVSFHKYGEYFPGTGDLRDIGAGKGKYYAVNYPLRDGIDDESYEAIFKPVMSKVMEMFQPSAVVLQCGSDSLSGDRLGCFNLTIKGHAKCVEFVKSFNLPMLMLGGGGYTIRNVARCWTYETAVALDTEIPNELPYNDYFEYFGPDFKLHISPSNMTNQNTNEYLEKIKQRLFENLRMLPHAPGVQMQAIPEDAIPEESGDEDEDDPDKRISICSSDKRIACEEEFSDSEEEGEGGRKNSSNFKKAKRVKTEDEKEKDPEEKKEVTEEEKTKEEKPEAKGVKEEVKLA
T4 sequence (P56524 627-1084 limits assumed): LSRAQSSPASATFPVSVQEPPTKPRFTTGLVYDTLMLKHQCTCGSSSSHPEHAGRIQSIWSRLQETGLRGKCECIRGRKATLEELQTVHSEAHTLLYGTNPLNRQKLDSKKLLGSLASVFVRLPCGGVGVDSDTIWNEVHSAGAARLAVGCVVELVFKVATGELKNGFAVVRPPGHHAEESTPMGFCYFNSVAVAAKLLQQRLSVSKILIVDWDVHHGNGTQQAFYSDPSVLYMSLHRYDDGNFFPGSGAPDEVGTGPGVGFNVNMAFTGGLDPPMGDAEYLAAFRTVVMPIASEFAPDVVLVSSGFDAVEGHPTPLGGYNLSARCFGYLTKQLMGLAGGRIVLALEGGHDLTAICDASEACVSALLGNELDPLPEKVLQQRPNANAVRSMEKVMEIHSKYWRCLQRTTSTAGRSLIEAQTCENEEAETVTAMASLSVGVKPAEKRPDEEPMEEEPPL

- HDAC3 inhibition (%) ([1]; 1 µM, means of two experiments): 55%
- HDAC3 inhibition (%) ([1]; 3 µM, means of two experiments): 81%
SMILES: Nc1ccccc1NC(=O)CCc1cn(Cc2cccc(-c3ccccc3)c2)nn1 [Compound T52]

- HDAC3 inhibition (%) ([1]; 1 µM, means of two experiments): 59%
- HDAC3 inhibition (%) ([1]; 3 µM, means of two experiments): 83%
SMILES: Nc1ccccc1NC(=O)c1cccc(-c2cn(CC(=O)c3ccccc3)nn2)c1 [Compound T199]

- HDAC3 inhibition (%) ([1]; 1 µM, means of two experiments): 75%
- HDAC3 inhibition (%) ([1]; 3 µM, means of two experiments): 92%
SMILES: Nc1ccccc1NC(=O)c1ccc(-c2cn(Cc3cccc4ccccc34)nn2)cc1 [Compound T251]

- HDAC3 inhibition (%) ([1]; 1 µM, means of two experiments): 75%
- HDAC3 inhibition (%) ([1]; 3 µM, means of two experiments): 89%
SMILES: Nc1ccccc1NC(=O)c1ccc(-c2cn(CCc3cccc(F)c3)nn2)cc1 [Compound T261]

- HDAC3 inhibition (%) ([1]; 1 µM, means of two experiments): 74%
- HDAC3 inhibition (%) ([1]; 3 µM, means of two experiments): 91%
SMILES: Cc1ccccc1CCn1cc(-c2ccc(C(=O)Nc3ccccc3N)cc2)nn1 [Compound T263]

- HDAC3 inhibition (%) ([1]; 1 µM, means of two experiments): 73%
- HDAC3 inhibition (%) ([1]; 3 µM, means of two experiments): 91%
SMILES: COc1ccccc1CCn1cc(-c2ccc(C(=O)Nc3ccccc3N)cc2)nn1 [Compound T266]

Continued, compound first:

SMILES: Nc1ccccc1NC(=O)c1ccc(-c2cn(CCc3ccsc3)nn2)cc1 [Compound T247, N-(2-Aminophenyl)-4-[1-(2-thiophen-3-ylethyl)-1H-[1], [2], [3]triazol-4-yl]benzamide]
- GI50 [2, 13]: 1.9 µM
- inhibition at 1 µM [1, 14]: 89%
- inhibition at 3 µM [1, 15]: 95%
- inhibition at 10 µM [1]: 93%
- IC50 HDAC3 [1]: submicromolar
- NF-κB acetylation [3]: dose-dependent increase of NF-κB acetylation
- IC50 [4]: 19 µM
- acetylation of α-tubulin [5]: did not enhance the acetylation of α-tubulin
- levels of acetylated p53 [6]: not elevated
- GI50 [7, 16]: 1.4 µM
- IC50 [8]: > 100 µM
- HIV-1 expression (p24 antigen in supernatant) [9, 17]: significantly stimulated HIV-1 expression

SMILES: Nc1ccccc1NC(=O)c1ccc(-c2cn(CCC3CCCCC3)nn2)cc1 [Compound T254]
- HDAC3 inhibition (%) ([1]; 1 µM, means of two experiments): 55%
- HDAC3 inhibition (%) ([1]; 3 µM, means of two experiments): 80%

SMILES: COc1cccc(CCn2cc(-c3ccc(C(=O)Nc4ccccc4N)cc3)nn2)c1 [Compound T267]
- HDAC3 inhibition (%) ([1]; 1 µM, means of two experiments): 80%
- HDAC3 inhibition (%) ([1]; 3 µM, means of two experiments): 92%

SMILES: Nc1ccccc1NC(=O)c1ccc(-c2cn(CCc3ccc(F)cc3)nn2)s1 [Compound T318]
- HDAC3 inhibition (%) ([1]; 1 µM, means of two experiments): 77%
- HDAC3 inhibition (%) ([1]; 3 µM, means of two experiments): 91%

SMILES: Nc1ccccc1NC(=O)c1ccc(-c2cn(CCc3cccc([N+](=O)[O-])c3)nn2)s1 [Compound T326, 5-{1-[2-(3-Nitrophenyl)ethyl]-1H-[1], [2], [3]triazol-4-yl}thiophene-2-carboxylic acid (2-aminophenyl)amide]
- GI50 [2, 13]: 0.94 µM
- inhibition at 1 µM [1, 14]: 86%
- inhibition at 3 µM [1, 15]: 95%
- inhibition at 10 µM [1]: 98%
- IC50 [1]: 0.26 µM
- IC50 HDAC3 [1]: submicromolar
- NF-κB acetylation [3]: dose-dependent increase of NF-κB acetylation
- IC50 [10]: > 100 µM
- IC50 [4]: > 100 µM
- IC50 [11]: > 100 µM
- acetylation of α-tubulin [5]: did not enhance the acetylation of α-tubulin
- levels of acetylated p53 [6]: not elevated
- GI50 [7, 16]: 1 µM
- IC50 [8]: > 100 µM
- HIV-1 expression (p24 antigen in supernatant) ([9]; 48 h, 10 µM): less active at 10 µM due to cytotoxicity
- HIV-1 expression (p24 antigen in supernatant) [9, 17]: significantly stimulated HIV-1 expression
- IC50 [12]: > 100 µM

SMILES: Cc1ccc(C(=O)NCC(=O)NCCC(=O)Nc2ccccc2N)cc1 [compound 1, reference compound]
- GI50 [2, 13]: 81 µM
- inhibition at 1 µM [1, 14]: 9%
- inhibition at 3 µM [1, 15]: 29%
- inhibition at 10 µM [1]: 47%
- IC50 [1]: 19 µM
- IC50 [10]: > 100 µM
- IC50 [4]: > 100 µM
- IC50 [11]: > 100 µM
- GI50 [7, 16]: > 100 µM
- IC50 [8]: > 100 µM
- HIV-1 expression (p24 antigen in supernatant) [9, 17]: did not show any activity
- IC50 [12]: > 100 µM

SMILES: O=C(CCCCCCC(=O)Nc1ccccc1)NO [vorinostat (3), vorinostat, reference compound]
- GI50 ([2]; HCT-116, 48 h): 1.3 µM
- inhibition at 1 µM ([1]; read-out: HDAC3 inhibition (%)): 83%
- inhibition at 3 µM ([1]; read-out: HDAC3 inhibition (%)): 93%
- inhibition at 1 µM ([1]; read-out: HDAC3 inhibition (%) at 1 µM): 98%
- NF-κB acetylation [3]: induced non-selective acetylation of NF-κB and p53
- levels of acetylated p53 [6]: induced non-selective acetylation of NF-κB and p53
- GI50 ([7]; PC-3, 48 h): 1.6 µM
- HIV-1 expression (p24 antigen in supernatant) [9, 17]: significantly stimulated HIV-1 expression
